Data reported in patent publication US20060035901A1, “Methotrexate derivatives useful for treating cancer and arthritis” (Serenex, Inc., priority 2004, published 2006).

Columns and labels:
[1] = tested on: MCF-7 (mammary; adenocarcinoma); test: Cell proliferation assay (WST-1), MCF-7; assay type: cell-based; conditions: MCF-7 cells
Method: (§1) A panel of cancer cell lines was obtained from the DCTP Tumor Repository, National Cancer Institute (Fredrick, Md.) or ATCC (Rockville, Md.). Cell cultures were maintained in Hyclone RPMI 1640 medium (Logan, Utah) supplemented with 10% fetal bovine serum and 20 mM HEPES buffer, pH 7.2, at 37° C., 5% CO2 atmosphere. Cultures were maintained at sub-confluent densities.
(§2) For proliferation assays, cells were seeded with the appropriate medium into 96 well plates at 1,000-2,000 cells per well, depending on cell line, and were incubated overnight. The following day, an amount of test compound, DMSO solution (negative control), or Actinomycin D (positive control) was added to the appropriate wells as 10× concentrated stocks prepared in phosphate buffered saline. The cell plates were then incubated for an additional 2-5 days, dependent on cell line, to allow for proliferation to occur. […] Optical density was determined for each well a 450 nm using a Tecan GniosPro plate reader (RTP, NC). The percentage of cell growth was then determined by comparing the cell growth in the presence of test compounds to the DMSO vehicle control treated cells (100% growth) and […] Actinomycin D treated cells (0% growth).

[2] = tested on: OVCAR-3 (ovarian; adenocarcinoma); test: Cell proliferation assay (WST-1), OVCAR-3; assay type: cell-based; conditions: OVCAR-3 cells
Method: as §1, §2

[3] = tested on: BT474 (breast cancer); test: Cell proliferation assay (WST-1), BT474; assay type: cell-based; conditions: BT474 cells
Method: as §1, §2

[4] = tested on: DMS-114 (N/A; small cell); test: Cell proliferation assay (WST-1), DMS-114; assay type: cell-based; conditions: DMS-114 cells
Method: as §1, §2

[5] = biological target: EGFR (Homo sapiens, UniProt P00533); test: Elution of EGFR from ATP-Sepharose column by compound (Proteome Mining), IC50 estimate; assay type: binding; conditions: estimated from percent of protein eluted from ATP-Sepharose column, gel densitometry; read-out: Approximate IC50 for EGFR
Method: A proteome containing a known quantity of Her2, EGFR, and B-Raf was run over an ATP-Sepharose™ column in order to bind all purine-binding proteins. See, WO 00/63694 and U.S. Provisional Application No. 60/453,697 filed Jan. 22, 2003, each of which is incorporated by reference in its entirety. The ATP-Sepharose™ was washed several times, and then eluted with the compound of Formula III. The experiment was run in duplicate at concentrations of 20 μM, 100 μM, and 500 μM of the compound of Formula III. The eluted fractions were run on a 1-dimensional SDS polyacrylamide gel. Gels were stained with a fluorescent stain such as sypro ruby (a highly sensitive fluorescent protein stain that can readily detect less than 1 fmol of total protein, i.e., less than 0.04 ng for a 40 kDa protein). The gels were imaged using a standard flat bed gel imager and the amount of protein estimated by densiometry. The percent of protein eluted from the column at each concentration was determined and IC50 values were calculated from these estimates. Where necessary, the eluted proteins were cut out of the gel, and identified using mass spectral techniques.
These steps were repeated with each of the compounds of Formulas IV-X, MTX, and the c series derivative.

[6] = tested on: PC-3 (N/A; carcinoma); test: Cell proliferation assay (WST-1), PC-3; assay type: cell-based; conditions: PC-3 cells
Method: as §1, §2

[7] = tested on: Lncap (prostate; carcinoma); test: Cell proliferation assay (WST-1), Lncap; assay type: cell-based; conditions: Lncap cells
Method: as §1, §2

[8] = tested on: Human umbilical vein endothelial cells (HUVEC); test: Cell proliferation assay (WST-1, Cyquant DNA), HUVEC; assay type: cell-based
Method: Human umbilical vein endothelial cells (HUVEC) were purchased from Clonetics, a division of Cabrex (Walkersville, Md.). Cultures were established from cryopreserved stocks using Clonetics EGM-2 medium supplemented with 20 mM HEPES, pH 7.2, at 37° C., 5% CO2 atmosphere.
as §2, with “saline.” for “saline. The cell plates were then incubated for an additional 2-5 days, dependent on cell line, to allow for proliferation to occur.”
(§3) Immediately after the WST-1 determination, the medium was removed from the NCI-H460 and HUVEC cell lines, and the plates stored at −80° C. Using these assay plates, relative DNA amounts in each well were determined using the Cyquant DNA assay kit from […] (Eugene, Oreg.) following the manufacturer's directions. […]

[9] = tested on: SkBr (breast cancer); test: Cell proliferation assay (WST-1), SkBr; assay type: cell-based; conditions: SkBr cells
Method: as §1, §2

[10] = tested on: NCI/ADR Res (breast; adenocarcinoma); test: Cell proliferation assay (WST-1), NCI/ADR Res; assay type: cell-based; conditions: NCI/ADR Res cells
Method: as §1, §2

[11] = tested on: SR (lymphoma, pleural effusion); test: Cell proliferation assay (WST-1), SR; assay type: cell-based; conditions: SR cells
Method: as §1, §2

[12] = tested on: NCI-H460 (lung; large cell carcinoma); test: Cell proliferation assay (WST-1, Cyquant DNA), NCI-H460; assay type: cell-based; conditions: NCI-H460 cells
Method: as §1
as §2, with “saline.” for “saline. The cell plates were then incubated for an additional 2-5 days, dependent on cell line, to allow for proliferation to occur.”
as §3

[13] = tested on: SF-268 (central nervous system; anaplastic astrocytoma); test: Cell proliferation assay (WST-1), SF-268; assay type: cell-based; conditions: SF-268 cells
Method: as §1, §2

[14] = tested on: HT29 (colon; adenocarcinoma, GRIII); test: Cell proliferation assay (WST-1), HT29; assay type: cell-based; conditions: HT29 cells
Method: as §1, §2

Chain of EGFR (P00533 25-1210, species assumed): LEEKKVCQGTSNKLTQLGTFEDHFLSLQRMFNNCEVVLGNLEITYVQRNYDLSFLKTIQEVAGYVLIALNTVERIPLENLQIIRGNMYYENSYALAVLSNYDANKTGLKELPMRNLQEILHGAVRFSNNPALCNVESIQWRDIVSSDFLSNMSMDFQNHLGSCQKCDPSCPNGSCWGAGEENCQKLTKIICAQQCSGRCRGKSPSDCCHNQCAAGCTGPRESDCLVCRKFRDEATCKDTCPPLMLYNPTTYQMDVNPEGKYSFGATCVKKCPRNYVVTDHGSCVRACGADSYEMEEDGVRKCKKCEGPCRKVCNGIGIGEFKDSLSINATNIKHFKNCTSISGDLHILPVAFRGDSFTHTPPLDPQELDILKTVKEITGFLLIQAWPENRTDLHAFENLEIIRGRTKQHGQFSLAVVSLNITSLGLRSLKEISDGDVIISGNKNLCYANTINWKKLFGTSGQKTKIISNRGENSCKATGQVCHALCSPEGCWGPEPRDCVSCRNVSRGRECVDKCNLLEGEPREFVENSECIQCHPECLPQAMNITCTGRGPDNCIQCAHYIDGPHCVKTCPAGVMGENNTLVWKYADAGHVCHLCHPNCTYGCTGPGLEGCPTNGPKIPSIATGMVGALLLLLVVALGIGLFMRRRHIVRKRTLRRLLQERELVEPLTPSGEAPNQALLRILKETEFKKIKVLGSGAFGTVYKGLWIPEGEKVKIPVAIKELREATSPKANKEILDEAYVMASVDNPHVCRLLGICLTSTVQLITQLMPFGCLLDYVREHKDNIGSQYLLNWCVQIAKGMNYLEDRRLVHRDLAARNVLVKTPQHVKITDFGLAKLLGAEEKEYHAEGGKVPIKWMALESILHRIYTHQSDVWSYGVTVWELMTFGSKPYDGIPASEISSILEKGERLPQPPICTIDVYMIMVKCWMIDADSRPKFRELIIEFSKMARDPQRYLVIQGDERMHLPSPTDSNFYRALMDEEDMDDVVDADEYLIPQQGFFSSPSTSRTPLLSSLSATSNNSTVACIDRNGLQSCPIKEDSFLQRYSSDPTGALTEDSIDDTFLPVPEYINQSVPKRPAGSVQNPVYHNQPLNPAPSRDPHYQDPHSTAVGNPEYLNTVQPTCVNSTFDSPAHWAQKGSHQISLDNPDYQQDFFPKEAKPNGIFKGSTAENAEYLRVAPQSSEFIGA

## C#CCN(Cc1cnc2nc(N)nc(N)c2n1)c1ccc(C(=O)NC(CCC(=O)O)C(=O)O)cc1C (centres unmarked) [Formula III, 2-{4-[(2,4-diamino-pteridin-6-ylmethyl)-prop-2-ynyl-amino]-3-methyl-benzoylamino}-pentanedioic acid]
[1]
  Fold Improvement in Cell Proliferation IC50 Compared to MTX: >1 fold
[2]
  Fold Improvement in Cell Proliferation IC50 Compared to MTX: >3 fold
[3]
  Fold Improvement in Cell Proliferation IC50 Compared to MTX: >5 fold
[4]
  Fold Improvement in Cell Proliferation IC50 Compared to MTX: >4 fold
[5]
  IC50: 5 µM
[6]
  Fold Improvement in Cell Proliferation IC50 Compared to MTX: >1 fold
[7]
  Fold Improvement in Cell Proliferation IC50 Compared to MTX: 7 fold
[8]
  Fold Improvement in Cell Proliferation IC50 Compared to MTX: >2 fold
[9]
  Fold Improvement in Cell Proliferation IC50 Compared to MTX: >2 fold
[10]
  Fold Improvement in Cell Proliferation IC50 Compared to MTX: >1 fold
[11]
  Fold Improvement in Cell Proliferation IC50 Compared to MTX: >4 fold
[12]
  Fold Improvement in Cell Proliferation IC50 Compared to MTX: >1 fold
[13]
  Fold Improvement in Cell Proliferation IC50 Compared to MTX: >4 fold
[14]
  Fold Improvement in Cell Proliferation IC50 Compared to MTX: >6 fold
